The results in this text go back to patent US12673975B2, “Cyclic peptide, cell scaffold material, cell separating material, and medium” (FUJIFILM Corporation, priority 2019, dated 2026).

Data set [1] can be described thus: Evaluation of molecule stability (alkali treatment, residual rate by LC/MS). In kind it is physicochemical. The following applies: for Stability (molecule stability, residual rate of the cyclic peptide rank): alkali treatment, residual rate by LC/MS; for Performance evaluation: Stability (residual rate of cyclic peptide after alkali treatment): 500 μM peptide aqueous solution plus equivalent of 1 M sodium hydroxide, 15° C., 3 hours, LC/MS peak area. On the procedure:
The molecule stability of the cyclic peptide was evaluated by analyzing the alkali-treated cyclic peptide aqueous solution by liquid chromatography mass spectroscopy (LC/MS).
The alkali treatment was carried out by the following method. A 500 μM cyclic peptide aqueous solution was prepared, an equivalent of 1 M sodium hydroxide aqueous solution was added to this aqueous solution, and the resultant mixture was incubated at 15° C. for 3 hours to obtain an alkali-treated cyclic peptide aqueous solution. The cyclic peptide residual rate was calculated by setting the total area of all peaks of the cyclic peptide before alkali treatment in LC/MS to 100% and determining the proportion of the total area of all peaks in LC/MS of the alkali-treated cyclic peptide aqueous solution, and the molecule stability was evaluated according to the following evaluation standards. It is preferable that the evaluation result satisfies the evaluation standard A, B, or C.
The conditions of the LC/MS used for the evaluation of molecule stability were set as follows. • LC apparatus: Prominence series (pump, column oven, autosampler, detector) (manufactured by Shimadzu Corporation) • MS detector: LC/MS2010EV (manufactured by Shimadzu Corporation) • Column: Cadenza CD-C18, inner diameter 2.0 mm×length 250 mm, particle size: 3 μm (manufactured by Imtakt Corporation) • Eluent A: a solution (pH 3) containing 10 mM ammonium formate as a solute, where the solvent is 100% water. • Eluent B: a solution (pH 3) containing 10 mM ammonium formate as a solute, where the solvent is acetonitrile/water=90/10. • Flow rate: 0.2 mL/min • Injection volume: 4 μL • Gradient: 0% to 30%: Eluent B (0 to 30 minutes), 100%: Eluent B (30 to 40 minutes), 0%: Eluent B (40 to 60 minutes) • Column temperature: 45° C. • Ionization method: electrospray ionization (ESI) positive, ESI negative

Data set [2] deals with human integrin αvβ5 (Homo sapiens, UniProt P06756+P18084). As to the kind of experiment: Evaluation of integrin binding property (surface plasmon resonance, Biacore 3000, immobilized cyclic peptide). On the procedure: A commercially available CMS (a carboxymethyl dextran introduction type, manufactured by GE Healthcare) sensor chip was set in Biacore 3000, which is a surface plasmon resonance apparatus manufactured by GE Healthcare, the sensor was stabilized at a flow rate of 10 μL/min of a HEPES (4-(2-hydroxyethyl)-1-piperazineethanesulfonic acid) buffer solution (20 mM HEPES-HCl, 150 mM NaCl, pH 7.4) for surface plasmon resonance (SPR), and 70 μL of a mixed aqueous solution of 0.2 M 1-(3-dimethylaminopropyl)-3-ethylcarbodiimide (EDC) and 0.04 M N-hydroxysuccinimide (NHS) was added thereto. Here, the concentration unit M represents mol/L, and the same applies hereinafter. Then, 20 μL of the sample solution of each of the above cyclic peptides diluted to 0.2 g/L with the HEPES buffer solution was supplied to the sensor chip, blocking treatment was subsequently carried out with an ethanolamine solution, and washing was carried out with a sodium hydroxide aqueous solution, whereby immobilization was carried out. However, only for the cyclic peptides 125, 126, and 127, in which the number of lysine residues having an amino group as the immobilizing functional group was zero, the amount of the sample solution to be supplied to the sensor chip was set to 500 μL instead of 20 μL. Further, 70 μL of the mixed aqueous solution of 0.2 M EDC and 0.04 M NHS was added to another flow channel of the same sensor chip without immobilizing the sample, and then blocking treatment and washing treatment were carried out. Hereinafter, the obtained immobilization-treated sensor chip is referred to as an “immobilization-treated sensor chip A”.
After adding human integrin αvβ5 for 10 minutes at 25° C., which was diluted to 30 nM using a HEPES buffer solution to which magnesium chloride was added to 5 mM, in each flow channel of the immobilization-treated sensor chip A prepared in (1) above, the same HEPES buffer solution (containing 5 mM magnesium chloride) was allowed to flow as a running buffer for 30 minutes, and measurement was carried out with Biacore 3000. Then, a regeneration treatment of removing human integrin αvβ5 was carried out by allowing a 0.5 M EDTA aqueous solution to flow through each flow channel for 10 minutes. Further, the above-described measurement process consisting of adding integrin for 10 minutes, allowing a running buffer to flow for 30 minutes, carrying out measurement with Biacore 3000, and carrying out regeneration treatment with 0.5 M EDTA aqueous solution was carried out in the same manner for 100 nM human integrin αvβ5, 300 nM human integrin αvβ5, and 1,000 nM human integrin αvβ5. Dissociation constant between the cyclic peptide and human integrin αvβ5 was calculated from the difference between the value measured by Biacore 3000 in the flow channel immobilized with the cyclic peptide and the value measured by Biacore 3000 in the flow channel unimmobilized with the cyclic peptide, in a case where each concentration of human integrin αvβ5 was allowed to flow, and the integrin binding property was evaluated according to the following evaluation standards. It is preferable that the evaluation result satisfies the evaluation standard A, B, or C.
(Surface plasmon resonance follows binding to a sensor surface in real time, without labels.)

The mark [3] stands for this setting: surface plasmon resonance, immobilized cyclic peptide, human integrin αvβ5, read-out: Binding activity (integrin binding property, dissociation constant rank).
Setting [4] is: SPR, 25° C., HEPES buffer with 5 mM magnesium chloride, integrin 30-1,000 nM, read-out: Performance evaluation: Binding activity (dissociation constant between the cyclic peptide and human integrin αvβ5).

Where two headings read alike, the source gives them in different places. Starred links: 1 amine or outer side, 2 acyl side, 3 side chain; linkers in the order of their positions; H or OH if unused. Positions of bridges follow the written chain, without caps; N, C: chain ends. Non-standard residues stand in square brackets, D forms with d. Residues, ends and D or L forms follow the SMILES beside them. hTyr = N[C@@H](CCc1ccc(O)cc1)C(=O)O; Pen = CC(C)(S)[C@H](N)C(=O)O; hCys = N[C@@H](CCS)C(=O)O; hSer = N[C@@H](CCO)C(=O)O; Dab = NCC[C@H](N)C(=O)O; Dap = NC[C@H](N)C(=O)O; X1 = O=C(C[*:2])[*:1]; X2 = O=C(C[*:1])[*:2]

Sequence of human integrin αvβ5 (P06756 31-1048): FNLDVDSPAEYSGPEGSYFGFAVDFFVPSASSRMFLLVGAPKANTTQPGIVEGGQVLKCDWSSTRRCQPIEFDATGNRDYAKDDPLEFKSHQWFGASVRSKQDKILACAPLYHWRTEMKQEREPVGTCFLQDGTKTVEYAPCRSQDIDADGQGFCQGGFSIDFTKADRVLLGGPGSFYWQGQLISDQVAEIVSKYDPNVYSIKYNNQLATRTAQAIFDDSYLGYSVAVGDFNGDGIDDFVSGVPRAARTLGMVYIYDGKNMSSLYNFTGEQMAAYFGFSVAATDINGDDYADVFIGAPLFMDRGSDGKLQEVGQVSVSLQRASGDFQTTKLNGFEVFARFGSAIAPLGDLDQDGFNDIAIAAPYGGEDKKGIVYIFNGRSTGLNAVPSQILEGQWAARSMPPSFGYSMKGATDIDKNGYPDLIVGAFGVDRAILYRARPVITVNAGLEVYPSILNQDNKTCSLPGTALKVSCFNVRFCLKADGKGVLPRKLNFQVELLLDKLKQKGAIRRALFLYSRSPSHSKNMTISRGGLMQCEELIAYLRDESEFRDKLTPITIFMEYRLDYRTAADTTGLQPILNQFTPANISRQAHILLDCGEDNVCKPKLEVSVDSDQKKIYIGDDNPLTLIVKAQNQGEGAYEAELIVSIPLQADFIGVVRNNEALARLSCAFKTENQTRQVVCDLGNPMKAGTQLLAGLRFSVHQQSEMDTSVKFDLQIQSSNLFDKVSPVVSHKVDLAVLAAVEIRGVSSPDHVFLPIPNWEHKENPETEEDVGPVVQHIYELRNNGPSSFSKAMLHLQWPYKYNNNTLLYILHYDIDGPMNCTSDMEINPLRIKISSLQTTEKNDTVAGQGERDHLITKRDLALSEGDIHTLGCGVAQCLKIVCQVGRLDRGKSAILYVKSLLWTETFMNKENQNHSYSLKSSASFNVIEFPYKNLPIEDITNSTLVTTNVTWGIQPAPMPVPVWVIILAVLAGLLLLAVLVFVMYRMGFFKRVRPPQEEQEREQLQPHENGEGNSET
Sequence of human integrin αvβ5 (P18084 24-799): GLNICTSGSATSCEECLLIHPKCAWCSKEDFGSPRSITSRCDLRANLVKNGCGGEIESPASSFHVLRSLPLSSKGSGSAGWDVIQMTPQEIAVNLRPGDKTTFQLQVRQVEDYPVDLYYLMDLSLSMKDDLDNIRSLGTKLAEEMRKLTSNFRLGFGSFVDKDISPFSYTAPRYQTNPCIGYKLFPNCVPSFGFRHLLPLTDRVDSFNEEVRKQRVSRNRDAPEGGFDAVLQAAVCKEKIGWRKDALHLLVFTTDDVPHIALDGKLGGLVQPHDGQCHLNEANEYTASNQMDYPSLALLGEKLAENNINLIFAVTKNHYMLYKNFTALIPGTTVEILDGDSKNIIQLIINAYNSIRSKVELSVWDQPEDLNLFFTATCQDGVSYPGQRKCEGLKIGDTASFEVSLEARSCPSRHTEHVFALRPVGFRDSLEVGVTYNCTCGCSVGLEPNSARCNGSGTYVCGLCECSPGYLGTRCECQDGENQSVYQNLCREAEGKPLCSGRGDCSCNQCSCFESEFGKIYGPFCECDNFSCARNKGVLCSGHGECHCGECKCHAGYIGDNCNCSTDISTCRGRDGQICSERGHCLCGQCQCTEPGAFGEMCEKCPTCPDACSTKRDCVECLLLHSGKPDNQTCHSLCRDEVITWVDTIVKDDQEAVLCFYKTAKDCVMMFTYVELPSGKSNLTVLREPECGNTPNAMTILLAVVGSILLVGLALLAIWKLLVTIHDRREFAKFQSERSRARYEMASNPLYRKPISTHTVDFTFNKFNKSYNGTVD

As to `CC(C)[C@@H]1NC(=O)[C@@H](NC(=O)[C@H](C)NC(=O)[C@H](CCCCN)NC(=O)[C@H](CCCCN)NC(=O)[C@@H](N)CCCCN)CCSCC(=O)NCC[C@@H](C(=O)O)NC(=O)[C@H](C)NC(=O)[C@H](Cc2ccccc2)NC(=O)[C@H]([C@@H](C)O)NC(=O)[C@H](CC(=O)O)NC(=O)CNC(=O)[C@H](CCCNC(=N)N)NC(=O)[C@@H]2CCCN2C1=O` [Cyclic peptide 164, KKKA-(Hcy)-VPRGDTFA(Dab(acetyl))] (H-KKKA[hCys]VPRGDTFA[Dab]-OH; linker 5-14 via X2), the “Stability (molecule stability, residual rate of the cyclic peptide rank)” value in data set [1] is “A (The residual rate of the cyclic peptide is 70% or more.)”. In addition, the Kd in data set [2] (setting [3]) was under 50 nM.

In the case of `C[C@H](NC(=O)[C@H](CCCCN)NC(=O)[C@H](CCCCN)NC(=O)[C@@H](N)CCCCN)C(=O)N[C@H]1CCSCC(=O)NCC[C@@H](C(=O)N[C@@H](CC(=O)O)C(=O)O)NC(=O)[C@H](CCCNC(=N)N)NC(=O)[C@H](Cc2ccc(O)cc2)NC(=O)[C@H](CO)NC(=O)[C@H](CC(=O)O)NC(=O)CNC(=O)[C@H](CCCNC(=N)N)NC(=O)[C@@H]2CCCN2C(=O)[C@H](CCC(=O)O)NC1=O` [Cyclic peptide 33, KKKA-(Hcy)-EPRGDSYR(Dab(acetyl))D] (H-KKKA[hCys]EPRGDSYR[Dab]D-OH; linker 5-14 via X2), the “Performance evaluation: Stability (residual rate of cyclic peptide after alkali treatment)” value in data set [1] was “A (The residual rate of the cyclic peptide is 70% or more.)”. For the same molecule, the Kd in data set [2] (setting [4]) is 100 to 200 nM.

For `CC[C@H](C)[C@@H]1NC(=O)[C@@H](NC(=O)[C@H](C)NC(=O)[C@H](CCCCN)NC(=O)[C@H](CCCCN)NC(=O)[C@@H](N)CCCCN)CCNC(=O)CSC(C)(C)[C@@H](C(=O)N[C@@H](C)C(=O)O)NC(=O)[C@H](C)NC(=O)[C@H](Cc2ccccc2)NC(=O)[C@H](CO)NC(=O)[C@H](CC(=O)O)NC(=O)CNC(=O)[C@H](CCCNC(=N)N)NC(=O)[C@@H]2CCCN2C1=O` [Cyclic peptide 137, KKKA(Dab(acetyl))IPRGDSFA-(Pen)-A] (H-KKKA[Dab]IPRGDSFA[Pen]A-OH; linker 5-14 via X1), the “Stability (molecule stability, residual rate of the cyclic peptide rank)” value in data set [1] is given as “A (The residual rate of the cyclic peptide is 70% or more.)”. For the same molecule, the Kd in data set [2] (setting [3]) is 50 to 100 nM.

Take `CC(C)[C@@H]1NC(=O)[C@@H](NC(=O)[C@H](C)NC(=O)[C@H](CCCCN)NC(=O)[C@H](CCCCN)NC(=O)[C@@H](N)CCCCN)CCNC(=O)CSC(C)(C)[C@@H](C(=O)N[C@@H](C)C(=O)O)NC(=O)[C@H](C)NC(=O)[C@H](Cc2ccccc2)NC(=O)[C@H]([C@@H](C)O)NC(=O)[C@H](CC(=O)O)NC(=O)CNC(=O)[C@H](CCCNC(=N)N)NC(=O)[C@@H]2CCCN2C1=O` [Cyclic peptide 136, KKKA(Dab(acetyl))VPRGDTFA-(Pen)-A] (H-KKKA[Dab]VPRGDTFA[Pen]A-OH; linker 5-14 via X1): in data set [1], the “Stability (molecule stability, residual rate of the cyclic peptide rank)” value is on record as “A (The residual rate of the cyclic peptide is 70% or more.)”. Further, the Kd in data set [2] (setting [3]) is under 50 nM.

In the case of `CC[C@H](C)[C@@H]1NC(=O)[C@@H](NC(=O)CNC(=O)[C@H](CCCCN)NC(=O)[C@H](CCCCN)NC(=O)[C@@H](N)CCCCN)CCSCC(=O)NCC[C@@H](C(=O)O)NC(=O)[C@H](CCCNC(=N)N)NC(=O)[C@H](Cc2ccccc2)NC(=O)[C@H](CC(N)=O)NC(=O)[C@H](CC(=O)O)NC(=O)CNC(=O)[C@H](CCCNC(=N)N)NC(=O)[C@@H]2CCCN2C1=O` [Cyclic peptide 7, KKKG-(Hcy)-IPRGDNFR(Dab(acetyl))] (H-KKKG[hCys]IPRGDNFR[Dab]-OH; linker 5-14 via X2), the “Performance evaluation: Stability (residual rate of cyclic peptide after alkali treatment)” value in data set [1] is “A (The residual rate of the cyclic peptide is 70% or more.)”. The Kd in data set [2] (setting [4]) was under 50 nM.

Turning to `CC(C)[C@@H]1NC(=O)[C@@H](NC(=O)[C@H](CCCCN)NC(=O)[C@H](CCCCN)NC(=O)[C@@H](N)CCCCN)CCSCC(=O)NCC[C@@H](C(=O)O)NC(=O)[C@H](C)NC(=O)[C@H](Cc2ccccc2)NC(=O)[C@H](CO)NC(=O)[C@H](CC(=O)O)NC(=O)CNC(=O)[C@H](CCCNC(=N)N)NC(=O)[C@@H]2CCCN2C1=O` [Cyclic peptide 102, KKK-(Hcy)-VPRGDSFA(Dab(acetyl))] (H-KKK[hCys]VPRGDSFA[Dab]-OH; linker 4-13 via X2), the “Stability (molecule stability, residual rate of the cyclic peptide rank)” value in data set [1] was “A (The residual rate of the cyclic peptide is 70% or more.)”. Further, in data set [2] (setting [3]), the Kd is under 50 nM.

As to `C[C@H](NC(=O)[C@H](CCCCN)NC(=O)[C@H](CCCCN)NC(=O)[C@@H](N)CCCCN)C(=O)N[C@H]1CNC(=O)CSC[C@@H](C(=O)O)NC(=O)[C@H](CCCNC(=N)N)NC(=O)[C@H](Cc2ccc(O)cc2)NC(=O)[C@H](CC(N)=O)NC(=O)[C@H](CC(=O)O)NC(=O)CNC(=O)[C@H](CCCNC(=N)N)NC(=O)[C@@H]2CCCN2C(=O)[C@H](CCC(=O)O)NC1=O` [Cyclic peptide 166, KKKA(Dap(acetyl))EPRGDNYR(C), reference compound] (H-KKKA[Dap]EPRGDNYRC-OH; linker 5-14 via X1), the “Stability (molecule stability, residual rate of the cyclic peptide rank)” value in data set [1] was “D (The residual rate of the cyclic peptide is less than 30%.)”. In data set [1] (summary of Table 9 to Table 13), the “molecule stability (in words)” value is “a practically sufficient molecule stability could be obtained”. The Kd in data set [2] (setting [3]) is under 50 nM.

Turning to `CC[C@H](C)[C@@H]1NC(=O)[C@@H](NC(=O)CNC(=O)[C@H](CCCCN)NC(=O)[C@H](CCCCN)NC(=O)[C@@H](N)CCCCN)CCSCC(=O)NCC[C@@H](C(=O)N[C@@H](C)C(=O)O)NC(=O)[C@H](CCCNC(=N)N)NC(=O)[C@H](Cc2ccccc2)NC(=O)[C@H](CCO)NC(=O)[C@H](CC(=O)O)NC(=O)CNC(=O)[C@H](CCCNC(=N)N)NC(=O)[C@@H]2CCCN2C1=O` [Cyclic peptide 73, KKKG-(Hcy)-IPRGD-(HmS)-FR(Dab(acetyl))A] (H-KKKG[hCys]IPRGD[hSer]FR[Dab]A-OH; linker 5-14 via X2), the “Performance evaluation: Stability (residual rate of cyclic peptide after alkali treatment)” value in data set [1] was “A (The residual rate of the cyclic peptide is 70% or more.)”.

For the molecule `C[C@H](NC(=O)[C@@H]1CCNC(=O)CSCC[C@H](NC(=O)CNC(=O)[C@H](CCCCN)NC(=O)[C@H](CCCCN)NC(=O)[C@@H](N)CCCCN)C(=O)N[C@@H](CCc2ccc(O)cc2)C(=O)N2CCC[C@H]2C(=O)N[C@@H](CCCNC(=N)N)C(=O)NCC(=O)N[C@@H](CC(=O)O)C(=O)N[C@@H]([C@@H](C)O)C(=O)N[C@@H](Cc2ccccc2)C(=O)N[C@@H](CCCNC(=N)N)C(=O)N1)C(=O)O` [Cyclic peptide 68, KKKG-(Hcy)-(HmY)-PRGDTFR(Dab(acetyl))A] (H-KKKG[hCys][hTyr]PRGDTFR[Dab]A-OH; linker 5-14 via X2), the “Performance evaluation: Stability (residual rate of cyclic peptide after alkali treatment)” value in data set [1] is listed as “A (The residual rate of the cyclic peptide is 70% or more.)”.
